US12503484B2, “Androstane derivatives with activity as pure or predominantly pure stimulators of SERCA2a for the treatment of heart failure” (Seismic Pharmaceuticals, priority 2019, dated 2025)
Entries after “also recorded” stand apart in the source; their conditions may differ. Like-named read-outs stand apart in the source and are kept apart here. Marks after values point to notes of the source that are not given here.

Experiments:
[1] = biological target: SERCA2a (Cavia porcellus, UniProt A0A286XD73); experiment: SERCA2a ATPase activity in heart-derived SR microsomes from normal guinea-pig; type: biochemical
Chain of SERCA2a (A0A286XD73 1-997): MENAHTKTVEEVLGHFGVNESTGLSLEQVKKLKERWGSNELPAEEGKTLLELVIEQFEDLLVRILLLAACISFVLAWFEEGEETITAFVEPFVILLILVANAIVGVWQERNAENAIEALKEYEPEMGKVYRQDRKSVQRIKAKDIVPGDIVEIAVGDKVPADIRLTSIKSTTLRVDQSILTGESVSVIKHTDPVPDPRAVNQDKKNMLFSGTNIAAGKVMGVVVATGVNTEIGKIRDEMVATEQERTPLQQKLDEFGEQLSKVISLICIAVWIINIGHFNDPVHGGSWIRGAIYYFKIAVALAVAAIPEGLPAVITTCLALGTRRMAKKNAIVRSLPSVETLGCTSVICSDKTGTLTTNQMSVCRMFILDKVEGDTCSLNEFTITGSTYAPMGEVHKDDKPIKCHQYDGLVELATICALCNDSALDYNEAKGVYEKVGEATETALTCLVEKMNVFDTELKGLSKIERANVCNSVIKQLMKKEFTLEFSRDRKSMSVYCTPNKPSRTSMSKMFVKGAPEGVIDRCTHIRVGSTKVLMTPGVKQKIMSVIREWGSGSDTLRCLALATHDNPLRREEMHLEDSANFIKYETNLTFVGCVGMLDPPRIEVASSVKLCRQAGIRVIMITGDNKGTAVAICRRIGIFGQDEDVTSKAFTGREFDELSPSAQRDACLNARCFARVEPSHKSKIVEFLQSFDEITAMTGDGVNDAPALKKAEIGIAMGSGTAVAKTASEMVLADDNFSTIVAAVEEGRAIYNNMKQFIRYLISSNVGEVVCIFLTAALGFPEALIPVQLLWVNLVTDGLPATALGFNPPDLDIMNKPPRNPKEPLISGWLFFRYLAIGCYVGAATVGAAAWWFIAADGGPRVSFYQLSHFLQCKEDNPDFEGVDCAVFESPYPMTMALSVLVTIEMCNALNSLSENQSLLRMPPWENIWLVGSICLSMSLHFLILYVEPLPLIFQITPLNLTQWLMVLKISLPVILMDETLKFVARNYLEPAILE
Protocol: SERCA2a ATPase Activity in Heart-Derived SR Microsomes from Normal Quinea-Pig
SERCA2a activity was measured in vitro as ^32P-ATP hydrolysis at different Ca^2+ concentrations (100-4000 nM) in the absence and presence of the tested compounds, as described (Micheletti R. et al., Am J Card 2007, 99:24A-32A). Increasing concentrations of each compound (ranging from 1 to 200 nM) were pre-incubated with 2 μg of SERCA2a enriched microsomes for 5 min at 4° C. in 80 μl of a solution containing 100 mM KCl, 5 mM MgCl2, 1 μM A23187, 20 mM Tris, pH 7.5. […] SERCA2a-dependent activity was identified as the portion of total hydrolytic activity inhibited by 10 μM cyclopiazonic acid (Seidler N W et al., J Biol Chem. 1989, 264:17816-23).
Dose-response curves were fitted by using a sigmoidal equation and the activity at the maximal velocity (Vmax) and the Kd for Ca^2+ were calculated (Synergy Software KaleidaGraph 3.6). The effect of the compounds in normal guinea-pig preparations was expressed as % decrease of Kd Ca^2+ (implying an increase of affinity for Ca^2+) of a control sample run in the absence of compound (Table 2). […] Data are mean±SD, n=number of experiments, *at least p<0.05.

[2] = system: rat ventricular myocytes isolated from STZ rats; experiment: SR Ca2+ uptake function in ventricular myocytes from STZ rats (loading protocol); type: cell-based; conditions: 1 μM
Source text: (§1) The compounds were characterized for their effect on (i) SR Ca^2+ uptake function and (ii) action potential (AP) in myocytes freshly dissociated from rat and guinea-pig ventricles, respectively, by retrograde coronary perfusion with enzymatic solution (Rocchetti M et al., J Pharmacol Exper Therap 2005, 313(1):207-215).
To test the effects of the compounds in a model of diastolic dysfunction, Sprague Dawley male rats (150-175 g) were made diabetic by a single tail vein injection of streptozotocin (STZ 50 mg/kg, Sigma-Aldrich). STZ was freshly prepared in 0.1 M sodium citrate buffer at pH 4.5. Fasting glycaemia was measured after 1 week and rats with values >300 mg/dl were considered diabetic. Drug effects on SR Ca^2+ uptake function were evaluated in isolated left ventricular myocytes 9 weeks after STZ injection. Myocytes were incubated for at least 30 min in the presence of a specific drug to guarantee its cell membrane permeation. Statistical analysis was performed by a “group comparison” model.
Drug effects on SR Ca^2+ uptake rate were evaluated with a SR “loading protocol” specifically devised to rule out the contribution of the Na/Ca exchanger (NCX) and to assess the uptake rate starting at low levels of SR Ca^2+ loading. Under voltage-clamp conditions, intracellular Ca^2+ concentration was dynamically measured by epifluorescence (Fluo4-AM). Membrane current, whose time-dependent component mainly reflected ICaL, was simultaneously recorded. The SR loading protocol consisted in emptying the SR by a brief caffeine pulse and then progressively refilling it by voltage steps activating Ca^2+ influx through the sarcolemmal Ca^2+ channel (ICaL). NCX was blocked by omission of Na^+ from intracellular and extracellular solutions. The procedure is in agreement with published methods, with minor modifications (Rocchetti M et al., J Pharmacol Exper Therap 2005, 313:207-215).
Drug effects on SR Ca^2+ uptake were analyzed by considering multiple parameters: the rate at which 1) Ca^2+ transient (CaT) amplitude and 2) the Ca^2+ induced Ca^2+ release (CICR) gain increased during the loading protocol, reflecting the rate at which the SR refilled and the gain of the system, 3) the time constant of cytosolic Ca^2+ decay (τdecay) within each pulse, reflecting net Ca^2+ transport rate (by SERCA2a) across the SR membrane (a decrease in τdecay corresponds to enhanced SR Ca^2+ uptake).

[3] = system: guinea-pig ventricular myocytes; experiment: Action potential measurements in guinea-pig ventricular myocytes; type: cell-based; conditions: 1 μM; for action potential duration (APD90) / diastolic membrane potential (Ediast) / maximum depolarization velocity (dV/dtmax) / rate-dependency of each AP parameter: 0.5-1-2-4 Hz; for slope of linear fit STV vs mean APD90: all pacing rates pooled; for short term APD variability (STV) and its dependency on mean APD: pacing rates 0.5-1-2 and 4 Hz
Protocol: as §1
Cvie216 and Cvie214 effects on action potential parameters were evaluated at the concentration of 1 μM modulating SERCA2a in guinea-pig myocytes. The action potential (AP) contour provides a first-line estimate of the integrated function of membrane ion channels, and its changes may disclose ancillary actions—potentially resulting in untoward effects of the compound. To increase sensitivity of the AP contour as a reporter, effects on the rate-dependency of AP parameters were also tested, thus providing a multiparametric (more stringent) approach. AP were recorded in guinea-pig ventricular myocytes because the AP contour reproduces the human AP. […] Statistical analysis was performed by a “group comparison” model.
APs were recorded in normal Tyrode's solution at 36.5° C. in guinea-pig ventricular myocytes. The following parameters were measured at 4 stimulation rates (0.5-1-2-4 Hz): diastolic membrane potential (Ediast), maximum depolarization velocity (dV/dtmax), action potential duration (APD at 90% of repolarization). Short term APD variability (STV) during steady-state pacing, an index of repolarization stability, was measured as the sum of absolute orthogonal deviations from the identity line in the APDnfAPDn+1 plot (Poincare plot) (Altomare C et al., Circulation A&E 2015, 8:1265-1275).

[4] = biological target: dog renal Na^+/K^+ ATPase (Canis lupus familiaris (Dog) (Canis familiaris), UniProt P50997); experiment: biochemical; conditions: IC50 inhibition of dog renal Na+/K+ ATPase, purified dog kidney enzyme;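 further: enzyme preincubated with inhibitor 10 min at 37 °C, then K^+ and ^32P-ATP added for 15 min, released ^32P counted, activity relative to untreated control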
Source text: Inhibition of Dog Renal Na^+/K^+ ATPase Activity
The compounds were thus tested for their inhibitory effect on the canine renal Na^+/K^+ ATPase enzyme.
Kidneys were excised from 1-3 year-old male beagle dogs (WuXi AppTec, Suzhou Co., Ltd. 1318 Wuzhong Ave., Wuzhong District Suzhou, 215104 P.R. China) under pentobarbital anesthesia (Import Authorization from Italian Health Ministry 0009171-09/04/2015-DGSAF-COD_UO-P, 2015). Kidneys were sliced and the outer medulla was dissected and suspended (1 g/10 ml) in a sucrose-histidine solution containing 250 mM sucrose, 30 mM histidine, and 5 mM EDTA, pH 7.2. The tissue was homogenized by using an Ultra Turrax homogenizer. The sample was centrifuged at 6,000 g for 15 min. Next, the supernatant was decanted and centrifuged at 48,000 g for 30 min. The pellet was suspended in the sucrose-histidine buffer and incubated for 20 min with a sodium-dodecyl-sulphate (SDS) solution dissolved in a gradient buffer containing 25 mM imidazole and 1 mM EDTA, pH 7.5. The sample was layered on the top of a sucrose discontinuous gradient (10, 15, and 29.4%) and centrifuged at 60,000 g for 115 min. The pellet was suspended in the gradient buffer.
Increasing concentrations of the standard ouabain, or tested compound, were incubated with 0.3 μg of purified dog kidney enzyme for 10 min at 37° C. in 120 μl final volume of a medium containing 140 mM NaCl, 3 mM MgCl2, 50 mM Hepes-Tris, 3 mM ATP, pH 7.5. Then, 10 μl of a solution containing 10 mM KCl and 20 nCi of ^32P-ATP (3-10 Ci/mmol, Perkin Elmer) were added. The reaction was allowed to continue for 15 min at 37° C. and then stopped by acidification with 20% v/v ice-cold perchloric acid. ^32P was separated by centrifugation with activated Charcoal (Norit A, Serva) and the radioactivity was counted. The inhibitory activity was expressed as percent of the control samples carried out in the absence of ouabain, or tested compound.

[5] = system: STZ diabetic rats; experiment: Haemodynamics in streptozotocin diabetic rats (echocardiography); type: in vivo, rat; conditions: after 15 min IV infusion 0.2 mg/kg/min
Protocol: CVie214 and CVie216 were tested in a diabetic rat model. Briefly, rats were injected with streptozotocin (STZ). After 7-9 weeks from STZ injection, rats were submitted to transthoracic echocardiographic and Doppler evaluation performed under urethane anesthesia. Two-dimensionally guided M-mode recordings were used to obtain short-axis measurements of left ventricular end-diastolic diameter (LVEDD), left ventricular end-systolic diameter (LVESD), posterior (PW) and septal (SW) diastolic wall thickness according to the American Society of Echocardiography guidelines (Lang R M et al., Eur J Echocardiography 2006, 7:79-108). Fractional shortening was calculated as FS=(LVEDD−LVESD)/LVEDD. Relative wall thickness was calculated as PWTd+IVSTd/LVEDD. Mitral inflow was measured by pulsed Doppler at the tips of mitral leaflets from an apical 4-chamber view to obtain early and late filling velocities (E, A) and deceleration time of early filling velocity (DT). The deceleration slope was calculated as E/DT ratio. The mitral deceleration index was calculated as DT/E ratio. Tissue Doppler Imaging (TDI) was evaluated from the apical 4-chamber view to record septal mitral annular movements, i.e., peak myocardial systolic (s′) and early and late diastolic velocity (e′ and a′).
After baseline hemodynamic measurements were taken, the rats were administered Digoxin, CVie214, CVie216 and compared to control. Digoxin, used as reference drug, was intravenously infused at 0.11 mg/kg/min for 15 min and echocardiographic parameters measured after 1 h. CVie214-salt and CVie216-salt were intravenously infused in STZ diabetic rats at 0.2 mg/kg/min and echocardiographic parameters were measured after 15 min and 30 min.
Tables 4-6 show the haemodynamic parameters in STZ diabetic rats for Digoxin, CVie214-salt, and Cvie216-salt.

[6] = Acute toxicity in the mouse; conditions: Albino Swiss CD-1, in vivo
Protocol: The acute toxicity of the tested compound CVie214-salt and CVie216-salt have been determined in the mouse (Albino Swiss CD-1, body weight 30 g). Compounds have been orally administered or intravenously injected at increasing doses to identify the dose causing 50% mortality. Mortality occurred within 30 min after the administration and survival after 24 h.
As comparison, the acute toxicity for the reference compounds Digoxin and Istaroxime were also included. Digoxin refers to literature data (www.lookchem.com, Reference for Digoxin intravenous: Afifi A M, Ammar E M. Pharmacological Research Communications. Vol. 6, Pg. 417, 1974; Reference for Digoxin oral: Archives Internationales de Pharmacodynamie et de Therapie. Vol. 153, Pg. 436, 1965) (Table 3).

[7] = read-out: Kd Ca2+ (nM) mean ± SD, compound 1 nM
[8] = read-out: Kd Ca2+ (nM) mean ± SD, compound 10 nM
[9] = read-out: Kd Ca2+ (nM) mean ± SD, compound 100 nM
[10] = read-out: Kd Ca2+ (nM) mean ± SD, compound 200 nM

Compound | Kd [1, 7] | Kd [1, 8] | Kd [1, 9] | Kd [1, 10] | Ca2+ transient (CaT) amplitude / rate of CaT increment during SR reloading [2] | Ca2+ uptake by the SR [2] | Ca2+-induced Ca2+ release (CICR) gain [2] | time constant of Ca2+ decay (τdecay) [2] | action potential duration (APD90) [3] | diastolic membrane potential (Ediast) [3] | maximum depolarization velocity (dV/dtmax) [3] | rate-dependency of each AP parameter [3] | slope of linear fit STV vs mean APD90 [3] | short term APD variability (STV) and its dependency on mean APD [3] | IC50 [4] | other results
C[C@]12CC[C@H](CC(=O)O)CC1C(O)CC1C2CC[C@]2(C)C(=O)CCC12 (stereo in doubt) [CVie216, 2-(6beta-hydroxy-17-oxoandrostane-3-yl) acetic acid] | 529 ± 75.8 nM | 465 ± 73.4 nM | 443 ± 85.1 nM | 463 ± 76.3 nM | statistically significant; also recorded: increased | significantly increased | increase | reduction | did not affect | did not affect | did not affect | did not affect | 0.009 | not significantly affected | > 100000 nM | –
C[C@]12CC[C@H](CCCC(=O)O)CC1[C@@H](O)CC1C2CC[C@]2(C)C(=O)CCC12 (stereo partly drawn) [CVie214, 4-(6alpha-hydroxy-17-oxoandrostane-3-yl) butyric acid] | 474 ± 40.4 nM | 467 ± 62.4 nM | 427 ± 48.9 nM | 409 ± 60.1 nM | failed to significantly increase | significantly increased | affected by the drug as expected from SERCA2a enhancement | close to significance; also recorded: affected by the drug as expected from SERCA2a enhancement | did not affect | did not affect | did not affect | did not affect | 0.014 | not significantly affected | > 100000 nM | HR heart rate [5]: modestly, but significantly, increased; s′ TDI contraction velocity [5]: modestly, but significantly, increased
C[C@]12CC[C@H](CCC3CCNCC3)CC1[C@@H](CO)[C@@H](O)[C@@H]1[C@@H]2CC[C@]2(C)C(=O)CC[C@@H]12 (stereo partly drawn) [CVie412, 3beta-[2-(piperidin-4-yl)ethyl]-6alpha-hydroxymethyl-7alpha-hydroxyandrostane-17-one] | – | – | 363 ± 74.1 nM | 361 ± 76.3 nM | – | – | – | – | – | – | – | – | – | – | 3000 nM | % change in Ca2+ Kd vs control (negative = decrease) ([1]; compound 100 nM): −19.1%; % change in Ca2+ Kd vs control (negative = decrease) ([1]; compound 200 nM): −19.6%*
C[C@]12CC/C(=N/OCCN)C[C@@H]1C(=O)C[C@@H]1[C@@H]2CC[C@]2(C)C(=O)CC[C@@H]12 [Istaroxime, (3Z,5a)-3-[(2-aminoethoxy)imino]androstane-6,17-dione, reference compound] | – | – | – | – | – | – | – | – | – | – | – | – | – | – | 140 nM | Kd ([1]; compound 1 nM, read-out: Kd Ca2+ (nM) mean ± SD): 524 ± 57.4 nM; Kd ([1]; compound 10 nM, read-out: Kd Ca2+ (nM) mean ± SD): 464 ± 52.4 nM; Kd ([1]; compound 100 nM, read-out: Kd Ca2+ (nM) mean ± SD): 462 ± 59.1 nM; LD50 at 24 h ([6]; iv): 29 to 32 mg/kg; LD50 at 24 h ([6]; oral, os): 200 mg/kg
